Assay results as given in patent US5690959A, “Pharmaceutical thermal infusion process” (priority 1993, dated 1997).
Where a name gives a salt, the structure may show the parent alone.

Tests used:
[1] = Degradation of clavulanate on thermal infusion; assay type: physicochemical
[2] = cited from earlier work
[3] = cited from earlier work; remark: listed apart in the source

Compound | degradation of clavulanate ([1]; more appropriate thermal infusion temperature) | degradation of clavulanate ([1]; thermal infusion at the more extreme temperatures) | solubility in water [2] | hydrolytic degradation ([3]; contacted by water) | spontaneous exothermic reaction ([3]; transport in bulk)
O=C(O)[C@H]1/C(=C/CO)O[C@@H]2CC(=O)N21 [clavulanate] | eliminates the degradation | minimal degree of degradation | highly water soluble |  | 
CN/C(=N/CCSCc1nc[nH]c1C)NC#N [Cimetidine, N"-cyano-N-methyl-N'-[2-[[(5-methyl-1-H-imidazol-4-yl)methyl]thio]-ethyl]-guanidine] |  |  | moderately soluble in water |  | 
O=C(O)[C@H]1/C(=C/CO)O[C@@H]2CC(=O)N21 [salts of clavulanic acid, Z-(3R,5R)-2-(β-hydroxyethyldiene) clavam-3-carboxylate] |  |  | freely water soluble | undergo spontaneous hydrolytic degradation when contacted by water | undergo a spontaneous exothermic reaction with the release of large quantities of gas and fumes
